Our source for the IC50 values is US4996358A, “Hydroxylamine bearing amino acid derivatives as collagenase inhibitors” (Hoffmann-La Roche Inc., priority 1986, dated 1991).

In the assay the target is T1, human synovial collagenase (Homo sapiens, UniProt P03956).
T1 construct: endogenous in cells; host or cells: human synovial fibroblast culture; procollagenase partially purified from the culture medium
T1 sequence (P03956 100-469): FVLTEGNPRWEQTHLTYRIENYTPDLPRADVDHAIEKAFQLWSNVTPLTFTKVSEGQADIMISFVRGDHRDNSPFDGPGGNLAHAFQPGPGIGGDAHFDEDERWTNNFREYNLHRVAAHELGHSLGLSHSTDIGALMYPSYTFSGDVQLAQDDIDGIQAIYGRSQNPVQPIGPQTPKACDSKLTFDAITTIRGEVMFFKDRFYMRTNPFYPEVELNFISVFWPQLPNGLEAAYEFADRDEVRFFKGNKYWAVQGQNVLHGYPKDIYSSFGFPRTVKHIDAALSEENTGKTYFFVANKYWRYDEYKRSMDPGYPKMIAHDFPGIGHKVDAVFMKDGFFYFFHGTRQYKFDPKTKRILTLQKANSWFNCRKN
The experiment in a line: In vitro inhibition of collagenase from human synovial fibroblast culture (synthetic peptide substrate cleavage). In kind it is biochemical. The note with it: trypsin-activated procollagenase; 0.5 mmol N-acetyl-L-prolyl-L-leucylglycyl-L-leucyl-L-leucylglycyl ester substrate; borate buffer pH 7.5, CaCl2; 37° C., 1 hour; read-out: Inhibitory activity against human synovial collagenase IC50. The method, then:
Procollagenase was partially purified from the cell culture medium by negative adsorption on DEAE Sephadex A-50 at pH 8.1 and activated by treatment with tryspin. The inhibitory activity of the present hydroxylamine derivatives was determined using a synthetic substrate, N-acetyl-L-prolyl-L-leucylglycyl-L-leucyl-L-leucylglycyl […], for this collagenase. The enzyme was added to a solution of 0.5 mmol of substrate in 50 mmol of borate buffer (pH 7.5) containing 1 mmol of calcium chloride and a known concentration of peptide derivative. The resulting solution was incubated at 37° C. for 1 hour. Enzyme digestion of the substrate was terminated by the addition of an equal volume of 2% (weight/volume) sodium hydrogen carbonate solution in 50% aqueous methanol containing 0.1% (weight/volume) of picrylsulfonic acid. The solution obtained was incubated at 37° C. for an additional 1 hour in order to allow reaction between the L-leucyl-L-leucyl-glycyl ethyl ester generated by the cleavage of the substrate and the picrylsulfonic acid to give trinitrophenyl-L-leucyl-L-leucylglycyl ethyl ester. The reaction was terminated and stabilized by acidification with IN hydrochloric acid. The concentration of trinitrophenyl-L-leucyl-L-leucylglycyl ethyl ester was determined by spectrophotometry at 335 nm. The IC50 is that concentration of hydroxylamine derivative of formula I of the invention in the enzyme digestion which reduces substrate cleavage to 50% of that achieved by the enzyme alone.
As for `CCOC(=O)CNC(=O)[C@H](CC(C)C)NC(=O)C(CC(C)C)CN(O)C=O` (mixture of isomers) [C, [N-formyl-N-hydroxy 2(RS)-isobutyl-3-aminopropionyl]-L-leucylglycine ethyl ester], the 50% inhibitory concentration (IC50) (as a rule, the midpoint of a concentration-inhibition curve) stood at 300 nM. Then `CCOC(=O)CNC(=O)[C@H](CC(C)C)NC(=O)[C@H](CC(C)C)[C@H](CCCCN1C(=O)c2ccccc2C1=O)C(=O)NO` [F, [4-(N-hydroxyamino) 3(S)-phthaloylaminobutyl-2(R)-isobutylsuccinyl]-L-leucylglycine ethyl ester], with 12 nM.

As to `CCOC(=O)[C@H](C)NC(=O)[C@H](CCCCNC(=O)CN)NC(=O)[C@@H](CC(=O)NO)CC(C)C` [D, N^α -[4-(N-hydroxyamino) 2(R)-isobutylsuccinyl]-N^ε -glycyl-L-lysyl-L-alanine ethyl ester], the half-inhibitory concentration (IC50) was found to be 30 nM.

Take `CC(C)C[C@H](CC(=O)NO)C(=O)NC1CCCCCCCCCCNC1=O` (stereo partly drawn) [E, [4-(N-hydroxyamino) 2(R)-isobutylsuccinyl]-3(RS)-aminolaurolactam]: the half-inhibitory concentration (IC50) was 38 nM. Then `CCOC(=O)[C@H](C)NC(=O)[C@H](CC(C)C)NC(=O)[C@@H](CC(=O)NO)CC(C)C` [B, [4-(N-hydroxyamino) 2(R)-isobutylsuccinyl]-L-leucyl-L-alanine ethyl ester], with 8.5 nM; and `CCOC(=O)CNC(=O)[C@H](CC(C)C)NC(=O)[C@@H](CC(=O)NO)CC(C)C` [A, [4-(N-Hydroxyamino) 2(R)-isobutylsuccinyl]-L-leucylglycine ethyl ester], with 25 nM.
